Test results as given in PubChem BioAssay AID248 (DTP/NCI, 2004).
Values joined by “and” are separate entries in the source; they are usually repeats but may differ in a detail not shown here. Identical values can stand only once. Toxic doses and inconclusive results are not listed. Rule as the data show it: active = T/C of 150% or more; inactive = T/C below 125%.

Test system: L1210 leukemia ip in BDF1 mice, survival T/C
Experiment: NCI In Vivo Anticancer Drug Screen. Data for tumor model L1210 Leukemia (intraperitoneal) in B6D2F1 (BDF1) mice
Conditions: higher = longer survival
How it was run: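 Antitumor effect is assessed in tumor-bearing animals. Survival in the compound arm is compared with a vehicle-dosed control arm and expressed as their quotient.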

Measured: T/C

CN(C)/N=N/c1nc[nH]c1C(N)=O
inactive: endpoint: mean survival time, dose: 3.12 mg/kg/injection, schedule: Q#A X Z (ip), vehicle: carboxymethylcellulose (CMC) 100 % of control | endpoint: mean survival time, dose: 3.3 mg/kg/injection, schedule: Q01DX009 (ip), vehicle: carboxymethylcellulose (CMC) 104 % of control | endpoint: mean survival time, dose: 6.2 mg/kg/injection, schedule: Q01DX Z (ip), vehicle: saline 106 % of control | endpoint: mean survival time, dose: 6.25 mg/kg/injection, schedule: Q01DX006 (iv), vehicle: carboxymethylcellulose (CMC) 107 % of control | endpoint: mean survival time, dose: 6.25 mg/kg/injection, schedule: Q01DX Z (im), vehicle: carboxymethylcellulose (CMC) 101 % of control | endpoint: mean survival time, dose: 6.25 mg/kg/injection, schedule: Q01DX Z (ip), vehicle: carboxymethylcellulose (CMC) 106 % of control | endpoint: mean survival time, dose: 6.5 mg/kg/injection, schedule: Q01DX009 (ip), vehicle: carboxymethylcellulose (CMC) 100 % of control | endpoint: mean survival time, dose: 7.5 mg/kg/injection, schedule: Q03HX032 (ip), vehicle: carboxymethylcellulose (CMC) 108 % of control | endpoint: mean survival time, dose: 9.0 mg/kg/injection, schedule: Q01DX001 (ip), vehicle: carboxymethylcellulose (CMC) 101 % of control | endpoint: mean survival time, dose: 11.4 mg/kg/injection, schedule: Q03HX032 (ip), vehicle: carboxymethylcellulose (CMC) 106 % of control | endpoint: mean survival time, dose: 12.5 mg/kg/injection, schedule: Q01DX Z (im), vehicle: carboxymethylcellulose (CMC) 106 % of control | endpoint: mean survival time, dose: 12.5 mg/kg/injection, schedule: Q#A X034 (ip), vehicle: carboxymethylcellulose (CMC) 105 % of control | endpoint: mean survival time, dose: 13.0 mg/kg/injection, schedule: Q01DX009 (ip), vehicle: carboxymethylcellulose (CMC) 100 % of control and 102 % of control | endpoint: mean survival time, dose: 15.0 mg/kg/injection, schedule: Q04DX002 (ip), vehicle: carboxymethylcellulose (CMC) 93 % of control and 110 % of control | endpoint: mean survival time, dose: 18.75 mg/kg/injection, schedule: Q01DX001 (ip), vehicle: carboxymethylcellulose (CMC) 107 % of control | endpoint: mean survival time, dose: 23.7 mg/kg/injection, schedule: Q01DX009 (ip), vehicle: carboxymethylcellulose (CMC) 108 % of control | endpoint: mean survival time, dose: 25.0 mg/kg/injection, schedule: Q01DX005 (ip), vehicle: water 110 % of control | endpoint: mean survival time, dose: 25.0 mg/kg/injection, schedule: Q01DX009 (ip), vehicle: Klucel (hydroxypropylcellulose) (HPC) 104 % of control | endpoint: mean survival time, dose: 25.0 mg/kg/injection, schedule: Q04DX003 (ip), vehicle: other 95 % of control and 103 % of control | endpoint: mean survival time, dose: 26.0 mg/kg/injection, schedule: Q03HX032 (ip), vehicle: carboxymethylcellulose (CMC) 111 % of control | endpoint: mean survival time, dose: 29.0 mg/kg/injection, schedule: Q04DX002 (ip), vehicle: carboxymethylcellulose (CMC) 100 % of control | endpoint: mean survival time, dose: 30.0 mg/kg/injection, schedule: Q## X008 (ip), vehicle: other 101 % of control | endpoint: mean survival time, dose: 31.0 mg/kg/injection, schedule: Q01DX001 (ip), vehicle: carboxymethylcellulose (CMC) 103 % of control | endpoint: mean survival time, dose: 32.0 mg/kg/injection, schedule: Q01DX005 (ip), vehicle: water 101 % of control | endpoint: mean survival time, dose: 39.0 mg/kg/injection, schedule: Q01DX009 (ip), vehicle: steriod suspending solution 108 % of control | endpoint: mean survival time, dose: 39.0 mg/kg/injection, schedule: Q01DX Z (ip), vehicle: steriod suspending solution 108 % of control | endpoint: mean survival time, dose: 50.0 mg/kg/injection, schedule: Q01DX001 (ip), vehicle: water 103 % of control | endpoint: mean survival time, dose: 50.0 mg/kg/injection, schedule: Q01DX Z (oral), vehicle: carboxymethylcellulose (CMC) 109 % of control | endpoint: mean survival time, dose: 50.0 mg/kg/injection, schedule: Q02DX009 (ip), vehicle: carboxymethylcellulose (CMC) 103 % of control | endpoint: mean survival time, dose: 50.0 mg/kg/injection, schedule: Q04DX003 (ip), vehicle: Klucel (hydroxypropylcellulose) (HPC) 110 % of control | endpoint: mean survival time, dose: 50.0 mg/kg/injection, schedule: Q04DX003 (ip), vehicle: other 104 % of control and 106 % of control | endpoint: mean survival time, dose: 50.0 mg/kg/injection, schedule: Q04DX003 (ip), vehicle: water 108 % of control | endpoint: mean survival time, dose: 50.0 mg/kg/injection, schedule: Q07DX003 (oral), vehicle: other 100 % of control | endpoint: mean survival time, dose: 50.0 mg/kg/injection, schedule: Q## X003 (ip), vehicle: carboxymethylcellulose (CMC) 105 % of control | endpoint: mean survival time, dose: 58.0 mg/kg/injection, schedule: Q04DX002 (ip), vehicle: carboxymethylcellulose (CMC) 103 % of control | endpoint: mean survival time, dose: 60.0 mg/kg/injection, schedule: Q## X008 (ip), vehicle: other 107 % of control | endpoint: mean survival time, dose: 62.0 mg/kg/injection, schedule: Q01DX001 (ip), vehicle: carboxymethylcellulose (CMC) 106 % of control | endpoint: mean survival time, dose: 65.0 mg/kg/injection, schedule: Q02DX009 (ip), vehicle: steriod suspending solution 106 % of control and 110 % of control | endpoint: mean survival time, dose: 66.0 mg/kg/injection, schedule: Q04DX003 (ip), vehicle: carboxymethylcellulose (CMC) 107 % of control | endpoint: mean survival time, dose: 100.0 mg/kg/injection, schedule: Q01DX001 (ip), vehicle: steriod suspending solution 110 % of control | endpoint: mean survival time, dose: 100.0 mg/kg/injection, schedule: Q01DX001 (ip), vehicle: water 105 % of control | endpoint: mean survival time, dose: 100.0 mg/kg/injection, schedule: Q04DX002 (ip), vehicle: Klucel (hydroxypropylcellulose) (HPC) 105 % of control | endpoint: mean survival time, dose: 100.0 mg/kg/injection, schedule: Q04DX003 (ip), vehicle: water 110 % of control | endpoint: mean survival time, dose: 100.0 mg/kg/injection, schedule: Q07DX003 (oral), vehicle: other 104 % of control | endpoint: mean survival time, dose: 100.0 mg/kg/injection, schedule: Q## X003 (ip), vehicle: carboxymethylcellulose (CMC) 109 % of control | endpoint: mean survival time, dose: 100.0 mg/kg/injection, schedule: Q## X005 (ip), vehicle: carboxymethylcellulose (CMC) 107 % of control | endpoint: mean survival time, dose: 100.0 mg/kg/injection, schedule: Q#A X Z (ip), vehicle: carboxymethylcellulose (CMC) 102 % of control | endpoint: mean survival time, dose: 108.0 mg/kg/injection, schedule: Q02DX009 (ip), vehicle: steriod suspending solution 105 % of control and 107 % of control | endpoint: mean survival time, dose: 125.0 mg/kg/injection, schedule: Q01DX001 (ip), vehicle: carboxymethylcellulose (CMC) 109 % of control | endpoint: mean survival time, dose: 168.0 mg/kg/injection, schedule: Q01DX001 (ip), vehicle: carboxymethylcellulose (CMC) 107 % of control | endpoint: mean survival time, dose: 180.0 mg/kg/injection, schedule: Q02DX009 (ip), vehicle: steriod suspending solution 101 % of control and 104 % of control | endpoint: mean survival time, dose: 200.0 mg/kg/injection, schedule: Q01DX001 (ip), vehicle: water 108 % of control | endpoint: mean survival time, dose: 200.0 mg/kg/injection, schedule: Q01DX006 (iv), vehicle: carboxymethylcellulose (CMC) 102 % of control | endpoint: mean survival time, dose: 264.0 mg/kg/injection, schedule: Q01DX001 (ip), vehicle: other 110 % of control | endpoint: mean survival time, dose: 300.0 mg/kg/injection, schedule: Q01DX009 (ip), vehicle: steriod suspending solution 108 % of control | endpoint: mean survival time, dose: 300.0 mg/kg/injection, schedule: Q01DX Z (ip), vehicle: steriod suspending solution 108 % of control | endpoint: mean survival time, dose: 300.0 mg/kg/injection, schedule: Q03DX Z (ip), vehicle: carboxymethylcellulose (CMC) 103 % of control | endpoint: mean survival time, dose: 336.0 mg/kg/injection, schedule: Q01DX001 (ip), vehicle: carboxymethylcellulose (CMC) 109 % of control | endpoint: mean survival time, dose: 400.0 mg/kg/injection, schedule: Q01DX009 (ip), vehicle: other 106 % of control and 108 % of control | endpoint: mean survival time, dose: 400.0 mg/kg/injection, schedule: Q01DX009 (ip), vehicle: water 102 % of control | endpoint: mean survival time, dose: 400.0 mg/kg/injection, schedule: Q01DX Z (sc), vehicle: carboxymethylcellulose (CMC) 108 % of control | endpoint: mean survival time, dose: 400.0 mg/kg/injection, schedule: Q## X009 (ip), vehicle: carboxymethylcellulose (CMC) 110 % of control | endpoint: mean survival time, dose: 800.0 mg/kg/injection, schedule: Q01DX Z (oral), vehicle: carboxymethylcellulose (CMC) 96 % of control | endpoint: median survival time, dose: 20.0 mg/kg/injection, schedule: Q01DX009 (ip), vehicle: Klucel (hydroxypropylcellulose) (HPC) 106 % of control | endpoint: median survival time, dose: 20.0 mg/kg/injection, schedule: Q01DX015 (ip), vehicle: Klucel (hydroxypropylcellulose) (HPC) 110 % of control | endpoint: median survival time, dose: 65.0 mg/kg/injection, schedule: Q01DX001 (ip), vehicle: steriod suspending solution 100 % of control | endpoint: median survival time, dose: 65.0 mg/kg/injection, schedule: Q01DX009 (ip), vehicle: Klucel (hydroxypropylcellulose) (HPC) 110 % of control | endpoint: median survival time, dose: 65.0 mg/kg/injection, schedule: Q04DX003 (ip), vehicle: steriod suspending solution 110 % of control | endpoint: median survival time, dose: 108.0 mg/kg/injection, schedule: Q01DX001 (ip), vehicle: steriod suspending solution 110 % of control | endpoint: median survival time, dose: 108.0 mg/kg/injection, schedule: Q01DX014 (ip), vehicle: Klucel (hydroxypropylcellulose) (HPC) 94 % of control | endpoint: median survival time, dose: 108.0 mg/kg/injection, schedule: Q04DX003 (ip), vehicle: steriod suspending solution 110 % of control | endpoint: median survival time, dose: 180.0 mg/kg/injection, schedule: Q01DX001 (ip), vehicle: steriod suspending solution 100 % of control | endpoint: median survival time, dose: 180.0 mg/kg/injection, schedule: Q01DX014 (ip), vehicle: Klucel (hydroxypropylcellulose) (HPC) 108 % of control | endpoint: median survival time, dose: 300.0 mg/kg/injection, schedule: Q01DX001 (ip), vehicle: steriod suspending solution 110 % of control | endpoint: median survival time, dose: 300.0 mg/kg/injection, schedule: Q01DX013 (ip), vehicle: Klucel (hydroxypropylcellulose) (HPC) 105 % of control and 107 % of control | endpoint: median survival time, dose: 300.0 mg/kg/injection, schedule: Q01DX014 (ip), vehicle: Klucel (hydroxypropylcellulose) (HPC) 101 % of control | endpoint: median survival time, dose: 400.0 mg/kg/injection, schedule: Q04DX003 (ip), vehicle: Klucel (hydroxypropylcellulose) (HPC) 110 % of control | endpoint: median survival time, dose: 500.0 mg/kg/injection, schedule: Q01DX001 (ip), vehicle: steriod suspending solution 110 % of control | endpoint: median survival time, dose: 500.0 mg/kg/injection, schedule: Q01DX013 (ip), vehicle: Klucel (hydroxypropylcellulose) (HPC) 105 % of control and 107 % of control | endpoint: median survival time, dose: 500.0 mg/kg/injection, schedule: Q01DX014 (ip), vehicle: Klucel (hydroxypropylcellulose) (HPC) 102 % of control | endpoint: median survival time, dose: 833.0 mg/kg/injection, schedule: Q01DX009 (ip), vehicle: Klucel (hydroxypropylcellulose) (HPC) 110 % of control | endpoint: median survival time, dose: 1600.0 mg/kg/injection, schedule: Q04DX003 (ip), vehicle: Klucel (hydroxypropylcellulose) (HPC) 95 % of control
